PubChem BioAssay AID1259407 (Chemical Carcinogenesis Research Information System (CCRIS), 2018)
Entries after “also recorded” stand apart in the source; their conditions may differ. Activity calls are given as the source filed them. The rule behind the calls is not given here.

System: CCRIS mutagenicity, Ames/micronucleus/aberration tests
Assay: CCRIS mutagenicity studies
[1] = Test System: AMES SALMONELLA TYPHIMURIUM, Strain/Indicator: TA98, Metabolic Activation: NONE, Method: STANDARD PLATE
[2] = Test System: AMES SALMONELLA TYPHIMURIUM, Strain/Indicator: TA100, Metabolic Activation: NONE, Method: STANDARD PLATE

**Q.** What does the source list for CC(=O)OCC(COC(C)=O)OC(C)=O?
**A.** mutagenic call (Test System: Ames Salmonella typhimurium, Strain/Indicator: TA98, Metabolic Activation: None, Method: Preincubation): inactive; negative; mutagenic call (Test System: Ames Salmonella typhimurium, Strain/Indicator: TA98, Metabolic Activation: Rat, Liver, S9, Sodium phenobarbital and 5,6-benzoflavone, Method: Preincubation): inactive; negative; mutagenic call (Test System: Ames Salmonella typhimurium, Strain/Indicator: TA100, Metabolic Activation: None, Method: Preincubation): inactive; negative; mutagenic call (Test System: Ames Salmonella typhimurium, Strain/Indicator: TA100, Metabolic Activation: Rat, Liver, S9, Sodium phenobarbital and 5,6-benzoflavone, Method: Preincubation): inactive; negative; mutagenic call (Test System: Ames Salmonella typhimurium, Strain/Indicator: TA1535, Metabolic Activation: None, Method: Preincubation): inactive; negative; mutagenic call (Test System: Ames Salmonella typhimurium, Strain/Indicator: TA1535, Metabolic Activation: Rat, Liver, S9, Sodium phenobarbital and 5,6-benzoflavone, Method: Preincubation): inactive; negative; mutagenic call (Test System: Ames Salmonella typhimurium, Strain/Indicator: TA1537, Metabolic Activation: None, Method: Preincubation): inactive; negative; mutagenic call (Test System: Ames Salmonella typhimurium, Strain/Indicator: TA1537, Metabolic Activation: Rat, Liver, S9, Sodium phenobarbital and 5,6-benzoflavone, Method: Preincubation): inactive; negative; mutagenic call (Test System: E. coli, Strain/Indicator: WP2uvrA/pKM101, Metabolic Activation: None, Method: Preincubation): inactive; negative; mutagenic call (Test System: E. coli, Strain/Indicator: WP2uvrA/pKM101, Metabolic Activation: Rat, Liver, S9, Sodium phenobarbital and 5,6-benzoflavone, Method: Preincubation): inactive; negative

**Q.** Which results are given for Clc1ccc(C(Cl)c2ccccn2)cc1 (stereo not given)?
**A.** mutagenic call (End Point: IN VITRO CHROMOSOMAL ABERRATIONS, Test System: CHL CELLS, Metabolic Activation: NONE): inactive; negative; test chemical precipitated at 0.2 mg/ml; toxic at 0.3 mg/ml (metaphase; also recorded: active; positive (structural changes); 0.30 mg/ml was toxic; metaphase cell division not; mutagenic call (End Point: IN VITRO CHROMOSOMAL ABERRATIONS, Test System: CHL CELLS, Metabolic Activation: RAT, LIVER, S-9, SODIUM PHENOBARBITAL AND 5,6-BENZOFLAVONE): active; positive (structural changes); test chemical precipitated at 2 highest of 4 dose

**Q.** What does the source list for C=C1C[C@@]23CC[C@H]4[C@@](C)(CCC[C@@]4(C)C(=O)O)[C@@H]2CC[C@]1(O)C3?
**A.** mutagenic call (Test System: AMES SALMONELLA TYPHIMURIUM, Strain/Indicator: TA97, Metabolic Activation: NONE, Method: PREINCUBATION): inactive; negative; mutagenic call (Test System: AMES SALMONELLA TYPHIMURIUM, Strain/Indicator: TA97, Metabolic Activation: RAT, LIVER, S-9, PCB, Method: PREINCUBATION): inactive; negative; mutagenic call (Test System: AMES SALMONELLA TYPHIMURIUM, Strain/Indicator: TA98, Metabolic Activation: NONE, Method: PREINCUBATION): inactive; negative; mutagenic call (Test System: AMES SALMONELLA TYPHIMURIUM, Strain/Indicator: TA98, Metabolic Activation: RAT, LIVER, S-9, PCB, Method: PREINCUBATION): inactive; negative; mutagenic call (Test System: AMES SALMONELLA TYPHIMURIUM, Strain/Indicator: TA98, Metabolic Activation: RAT, LIVER, S-9, SODIUM PHENOBARBITAL AND 5,6-BENZOFLAVONE, Method: PREINCUBATION): inactive; negative; mutagenic call (Test System: AMES SALMONELLA TYPHIMURIUM, Strain/Indicator: TA100, Metabolic Activation: NONE, Method: PREINCUBATION): inactive; negative; mutagenic call (Test System: AMES SALMONELLA TYPHIMURIUM, Strain/Indicator: TA100, Metabolic Activation: RAT, LIVER, S-9, PCB, Method: PREINCUBATION): inactive; negative; mutagenic call (Test System: AMES SALMONELLA TYPHIMURIUM, Strain/Indicator: TA100, Metabolic Activation: RAT, LIVER, S-9, SODIUM PHENOBARBITAL AND 5,6-BENZOFLAVONE, Method: PREINCUBATION): inactive; negative; mutagenic call (Test System: AMES SALMONELLA TYPHIMURIUM, Strain/Indicator: TA102, Metabolic Activation: NONE, Method: PREINCUBATION): inactive; negative; mutagenic call (Test System: AMES SALMONELLA TYPHIMURIUM, Strain/Indicator: TA102, Metabolic Activation: RAT, LIVER, S-9, PCB, Method: PREINCUBATION): inactive; negative; mutagenic call (Test System: AMES SALMONELLA TYPHIMURIUM, Strain/Indicator: TA104, Metabolic Activation: NONE, Method: PREINCUBATION): inactive; negative; mutagenic call (Test System: AMES SALMONELLA TYPHIMURIUM, Strain/Indicator: TA104, Metabolic Activation: RAT, LIVER, S-9, PCB, Method: PREINCUBATION): inactive; negative; mutagenic call (Test System: AMES SALMONELLA TYPHIMURIUM, Strain/Indicator: TM677, Metabolic Activation: NONE, Method: PREINCUBATION): inactive; negative; mutagenic call (Test System: AMES SALMONELLA TYPHIMURIUM, Strain/Indicator: TM677, Metabolic Activation: RAT, LIVER, MICROSOMES, AROCLOR 1254, Method: SUSPENSION/PLATE): active; positive; mutagenic call (Test System: AMES SALMONELLA TYPHIMURIUM, Strain/Indicator: TM677, Metabolic Activation: RAT, LIVER, S-9, AROCLOR 1254, Method: PREINCUBATION): active; positive; mutagenic call (Test System: AMES SALMONELLA TYPHIMURIUM, Strain/Indicator: TM677, Metabolic Activation: RAT, LIVER, S-9, AROCLOR 1254, Method: SUSPENSION/PLATE): active; positive

**Q.** Which mutagenic call [1] does the source give for CC(=O)ON(C(C)=O)c1ccccc1C here?
**A.** inactive; negative

**Q.** And the mutagenic call (Test System: AMES SALMONELLA TYPHIMURIUM, Strain/Indicator: TA98, Metabolic Activation: RAT, LIVER, S-9, AROCLOR 1254, Method: STANDARD PLATE)?
**A.** inactive; negative

**Q.** And the mutagenic call [2]?
**A.** inactive; negative

**Q.** And the mutagenic call (Test System: AMES SALMONELLA TYPHIMURIUM, Strain/Indicator: TA100, Metabolic Activation: RAT, LIVER, S-9, AROCLOR 1254, Method: STANDARD PLATE)?
**A.** inactive; negative

**Q.** How did the mutagenic call [1] turn out when COc1ccc(-c2nc(-c3ccccc3)c(-c3ccccc3)[nH]2)cc1OC was run?
**A.** active; positive

**Q.** What about the mutagenic call [2] of the same compound?
**A.** active; positive

**Q.** What about the mutagenic call (Test System: AMES SALMONELLA TYPHIMURIUM, Strain/Indicator: TA100, Metabolic Activation: RAT LIVER S-9, 3-METHYLCHOLANTHRENE, SODIUM PHENOBARBITAL, Method: STANDARD PLATE) of the same compound?
**A.** active; positive
